Data: patent publication US20240190849A1, “AMINOPYRIMIDINE COMPOUNDS AND METHODS OF THEIR USE” (TYRA BIOSCIENCES, INC., priority 2021, published 2024)

Assays:
Details in all cases: FGFR binding data
FGFR3 = biological target: T1, FGFR3 (Homo sapiens, UniProt P22607); experiment: Kinase binding assay (kinase-tagged T7 phage, affinity beads, qPCR readout), FGFR3
T1 construct: made in house; host or cells: E. coli derived from BL21, infected with T7 phage
Experimental: (§1) Kinase-tagged T7 phage strains were prepared in an E. coli host derived from the BL21 strain. E. coli were grown to log-phase and infected with T7 phage and incubated with shaking at 32° C. until lysis. The lysates were centrifuged and filtered to remove cell debris. Streptavidin-coated magnetic beads were treated with biotinylated small molecule ligands for 30 minutes at room temperature to generate affinity resins for kinase assays. The liganded beads were blocked with excess biotin and washed with blocking buffer SeaBlock (Pierce), 1% BSA, 0.05% Tween 20, 1 mM DTT to remove unbound ligand and to reduce non-specific binding. Binding reactions were assembled by combining kinases, liganded affinity beads, and test compounds in 1× binding buffer (20% SeaBlock, 0.17×PBS, 0.05% Tween 20, 6 mM DTT).
(§2) Test compounds were prepared as 111× stocks in 100% DMSO. Kds were determined using an 11-point 3-fold compound dilution series with three DMSO control points. All compounds for Kd measurements are distributed by acoustic transfer (non-contact dispensing) in 100% DMSO. The compounds were then diluted directly into the assays such that the final concentration of DMSO was 0.9%. All reactions performed in polypropylene 384-well plate. Each was a final volume of 0.02 ml. The assay plates were incubated at room temperature with shaking for 1 hour and the affinity beads were washed with wash buffer (1×PBS, 0.05% Tween 20). The beads were then re-suspended in elution buffer (1×PBS, 0.05% Tween 20, 0.5 μM non-biotinylated affinity ligand) and incubated at room temperature with shaking for 30 minutes. The kinase concentration in the eluates was measured by qPCR.
(§3) Binding constants were calculated with a standard dose-response curve using the Hill equation: […]
(§4) The Hill Slope was set to −1. Curves were fitted using a non-linear least square fit with the Levenberg-Marquardt algorithm.

FGFR1 = biological target: T2, FGFR1 (Homo sapiens, UniProt P11362); experiment: Kinase binding assay (kinase-tagged T7 phage, affinity beads, qPCR readout), FGFR1
T2 construct: made in house; host or cells: E. coli derived from BL21, infected with T7 phage
Experimental: as §1, §2, §3, §4

FGFR3 (V555M) = biological target: T3, FGFR3 (V555M) (Homo sapiens, UniProt P22607, V555M); experiment: Kinase binding assay (kinase-tagged T7 phage, affinity beads, qPCR readout), FGFR3 (V555M)
T3 construct: made in house; host or cells: E. coli derived from BL21, infected with T7 phage
Experimental: as §1, §2, §3, §4

FGFR2 = biological target: T4, FGFR2 (Homo sapiens, UniProt P21802); experiment: Kinase binding assay (kinase-tagged T7 phage, affinity beads, qPCR readout), FGFR2
T4 construct: made in house; host or cells: E. coli derived from BL21, infected with T7 phage
Experimental: as §1, §2, §3, §4

T4 sequence (P21802 22-821): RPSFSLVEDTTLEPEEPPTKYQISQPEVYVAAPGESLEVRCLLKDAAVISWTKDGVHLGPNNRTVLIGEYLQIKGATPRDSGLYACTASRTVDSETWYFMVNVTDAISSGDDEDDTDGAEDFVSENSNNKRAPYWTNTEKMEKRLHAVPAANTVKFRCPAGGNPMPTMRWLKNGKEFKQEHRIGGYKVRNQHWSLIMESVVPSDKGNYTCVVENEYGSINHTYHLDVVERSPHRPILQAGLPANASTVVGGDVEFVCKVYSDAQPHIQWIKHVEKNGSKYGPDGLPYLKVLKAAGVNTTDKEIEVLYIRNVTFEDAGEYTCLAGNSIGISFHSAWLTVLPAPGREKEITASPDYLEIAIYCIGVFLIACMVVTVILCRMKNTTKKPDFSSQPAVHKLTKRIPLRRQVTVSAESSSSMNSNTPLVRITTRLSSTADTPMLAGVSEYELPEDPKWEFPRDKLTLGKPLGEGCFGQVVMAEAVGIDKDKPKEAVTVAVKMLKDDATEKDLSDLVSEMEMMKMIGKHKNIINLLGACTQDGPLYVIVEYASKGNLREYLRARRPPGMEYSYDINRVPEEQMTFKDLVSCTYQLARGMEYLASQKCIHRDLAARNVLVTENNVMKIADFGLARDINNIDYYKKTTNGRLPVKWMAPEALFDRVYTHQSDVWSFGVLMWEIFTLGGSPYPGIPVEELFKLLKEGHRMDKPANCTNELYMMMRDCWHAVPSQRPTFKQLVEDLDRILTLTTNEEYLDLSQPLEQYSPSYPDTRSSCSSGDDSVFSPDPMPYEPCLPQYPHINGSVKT
T2 sequence (P11362 22-822): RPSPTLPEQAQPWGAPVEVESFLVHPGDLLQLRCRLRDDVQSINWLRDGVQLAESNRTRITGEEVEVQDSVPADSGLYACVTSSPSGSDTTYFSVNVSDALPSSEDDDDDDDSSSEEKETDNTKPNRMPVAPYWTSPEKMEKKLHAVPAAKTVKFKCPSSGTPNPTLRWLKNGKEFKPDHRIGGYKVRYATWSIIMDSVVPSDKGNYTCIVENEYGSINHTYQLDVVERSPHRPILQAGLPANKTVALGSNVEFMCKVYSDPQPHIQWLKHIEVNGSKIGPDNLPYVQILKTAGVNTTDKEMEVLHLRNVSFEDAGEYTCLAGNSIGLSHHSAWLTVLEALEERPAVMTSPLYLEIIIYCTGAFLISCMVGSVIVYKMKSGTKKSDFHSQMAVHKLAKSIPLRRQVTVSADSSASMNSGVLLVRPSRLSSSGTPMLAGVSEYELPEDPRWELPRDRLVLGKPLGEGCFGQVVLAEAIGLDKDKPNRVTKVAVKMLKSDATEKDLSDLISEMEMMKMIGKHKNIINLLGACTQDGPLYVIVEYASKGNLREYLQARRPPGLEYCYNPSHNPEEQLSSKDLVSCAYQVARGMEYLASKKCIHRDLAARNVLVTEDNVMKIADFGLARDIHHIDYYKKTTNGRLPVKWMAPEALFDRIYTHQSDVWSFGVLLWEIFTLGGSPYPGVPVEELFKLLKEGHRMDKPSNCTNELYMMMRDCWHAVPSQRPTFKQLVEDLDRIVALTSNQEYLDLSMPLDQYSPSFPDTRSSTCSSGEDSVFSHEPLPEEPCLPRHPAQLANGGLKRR
T1 sequence (P22607 23-806): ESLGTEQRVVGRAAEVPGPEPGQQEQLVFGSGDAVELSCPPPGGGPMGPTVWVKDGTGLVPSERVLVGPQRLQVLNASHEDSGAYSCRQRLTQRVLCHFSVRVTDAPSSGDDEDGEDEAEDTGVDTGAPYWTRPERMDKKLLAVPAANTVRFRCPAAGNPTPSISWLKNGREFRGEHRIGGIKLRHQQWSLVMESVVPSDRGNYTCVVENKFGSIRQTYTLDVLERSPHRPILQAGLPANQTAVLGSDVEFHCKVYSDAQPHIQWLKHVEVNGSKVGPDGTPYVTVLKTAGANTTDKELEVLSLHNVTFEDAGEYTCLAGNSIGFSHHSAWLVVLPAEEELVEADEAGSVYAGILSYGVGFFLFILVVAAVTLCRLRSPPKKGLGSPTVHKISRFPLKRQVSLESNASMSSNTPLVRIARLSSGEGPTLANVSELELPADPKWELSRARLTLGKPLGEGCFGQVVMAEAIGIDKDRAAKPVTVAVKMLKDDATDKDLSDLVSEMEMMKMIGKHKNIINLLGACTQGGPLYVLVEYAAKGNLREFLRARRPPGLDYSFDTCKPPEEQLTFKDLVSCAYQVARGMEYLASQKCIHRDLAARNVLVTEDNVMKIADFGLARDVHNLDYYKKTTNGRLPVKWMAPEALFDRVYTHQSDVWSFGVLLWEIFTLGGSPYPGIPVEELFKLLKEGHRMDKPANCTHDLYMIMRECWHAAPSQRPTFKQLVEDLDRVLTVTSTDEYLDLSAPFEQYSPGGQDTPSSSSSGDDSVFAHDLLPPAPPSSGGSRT
T3 sequence (P22607 23-806 V555M): as the sequence (P22607 23-806) above, with V533M counted along it

Row | Structure (SMILES) | Kd (FGFR3) | Kd (FGFR1) | Kd (FGFR3 (V555M)) | Kd (FGFR2)
1 | C=CC(=O)Nc1ccc2c(ccn2-c2nc(Nc3ccc(N(C)CCN(C)C)cc3)ncc2Cl)c1 [Example 3, N-[1-[5-chloro-2-[4-[2-(dimethylamino)ethyl-methyl-amino]anilino]pyrimidin-4-yl]indol-5-yl]prop-2-enamide] | 0.1 to 100 nM | 0.1 to 100 nM | 0.1 to 100 nM | 0.1 to 100 nM
2 | CCC(=O)Nc1ccc2c(ccn2-c2nc(Nc3ccc(N4CCN(C)CC4)cc3)ncc2Cl)c1 [Example 4, N-[1-[5-chloro-2-[4-(4-methylpiperazin-1-yl)anilino]pyrimidin-4-yl]indol-5-yl]propanamide] | 100 to 250 nM | 0.1 to 100 nM | 0.1 to 100 nM | 250 to 1000 nM
3 | C=CC(=O)Nc1ccc2c(ccn2-c2nc(Nc3cccc(OCCN4CCOCC4)c3)ncc2C)c1C [Example 5, N-[4-methyl-1-[5-methyl-2-[3-(2-morpholinoethoxy)anilino]pyrimidin-4-yl]indol-5-yl]prop-2-enamide] | 100 to 250 nM | 250 to 1000 nM | 0.1 to 100 nM | 100 to 250 nM
4 | C=CC(=O)Nc1ccc2c(ccn2-c2nc(Nc3cccc(OCCN4CCOCC4)c3)ncc2Cl)c1 [Example 6, N-[1-[5-chloro-2-[3-(2-morpholinoethoxy)anilino]pyrimidin-4-yl]indol-5-yl]prop-2-enamide] | 250 to 1000 nM | 250 to 1000 nM | 0.1 to 100 nM | 250 to 1000 nM
5 | C=CC(=O)Nc1ccc2c(ccn2-c2nc(Nc3ccc(N4CCOCC4)cc3OCC)ncc2Cl)c1 [Example 11, N-[1-[5-chloro-2-(2-ethoxy-4-morpholino-anilino)pyrimidin-4-yl]indol-5-yl]prop-2-enamide] | > 1000 nM | > 1000 nM | > 1000 nM | > 1000 nM
6 | C=CC(=O)Nc1ccc2c(ccn2-c2nc(Nc3cn(C)nc3OC)ncc2Cl)c1 [Example 12, N-[1-[5-chloro-2-[(3-methoxy-1-methyl-pyrazol-4-yl)amino]-pyrimidin-4-yl]indol-5-yl]prop-2-enamide] | 100 to 250 nM | 250 to 1000 nM | 0.1 to 100 nM | > 1000 nM
7 | C=CC(=O)Nc1ccc2c(ccn2-c2nc(Nc3ccccc3OCCN3CCOCC3)ncc2Cl)c1 [Example 13, N-[1-[5-chloro-2-[2-(2-morpholinoethoxy)anilino]pyrimidin-4-yl]indol-5-yl]prop-2-enamide] | > 1000 nM | > 1000 nM | > 1000 nM | > 1000 nM
8 | C=CC(=O)Nc1ccc2c(ccn2-c2nc(Nc3cn(C)nc3OCC)ncc2Cl)c1 [Example 14, N-[1-[5-chloro-2-[(3-ethoxy-1-methyl-pyrazol-4-yl)amino]pyrimidin-4-yl]indol-5-yl]prop-2-enamide] | > 1000 nM | 250 to 1000 nM | 100 to 250 nM | > 1000 nM
9 | C=CC(=O)Nc1ccc2c(ccn2-c2nc(Nc3ccc(N4CCOCC4)cc3)ncc2Cl)c1 [Example 15, N-[1-[5-chloro-2-(4-morpholinoanilino)pyrimidin-4-yl]indol-5-yl]prop-2-enamide] | 0.1 to 100 nM | 100 to 250 nM | 0.1 to 100 nM | 0.1 to 100 nM
10 | C=CC(=O)Nc1ccc2c(ccn2-c2nc(Nc3ccc(N4CCOCC4)c(F)c3)ncc2Cl)c1 [Example 16, N-[1-[5-chloro-2-(3-fluoro-4-morpholino-anilino)pyrimidin-4-yl]indol-5-yl]prop-2-enamide] | 0.1 to 100 nM | 250 to 1000 nM | 0.1 to 100 nM | 250 to 1000 nM
11 | C=CC(=O)Nc1ccc2c(ccn2-c2nc(Nc3ccc(N4CCOCC4)c(F)c3)ncc2Cl)c1C [Example 17, N-[1-[5-chloro-2-(3-fluoro-4-morpholino-anilino)pyrimidin-4-yl]-4-methyl-indol-5-yl]prop-2-enamide] | 100 to 250 nM | 250 to 1000 nM | 0.1 to 100 nM | 250 to 1000 nM
12 | C=CC(=O)Nc1ccc2c(ccn2-c2nc(Nc3cnn(C)c3)ncc2Cl)c1C [Example 18, N-[1-[5-chloro-2-[(1-methylpyrazol-4-yl)amino]pyrimidin-4-yl]-4-methyl-indol-5-yl]prop-2-enamide] | 100 to 250 nM | 100 to 250 nM | 0.1 to 100 nM | 100 to 250 nM
13 | C=CC(=O)Nc1ccc2c(ccn2-c2nc(Nc3ccccc3OCC)ncc2Cl)c1 [Example 20, N-[1-[5-chloro-2-(2-ethoxyanilino)pyrimidin-4-yl]indol-5-yl]prop-2-enamide] | > 1000 nM | > 1000 nM | > 1000 nM | > 1000 nM
14 | C=CC(=O)Nc1ccc2c(ccn2-c2nc(Nc3ccc(OCCN4CCOCC4)cc3)ncc2Cl)c1C [Example 21, N-[1-[5-chloro-2-[4-(2-morpholinoethoxy)anilino]pyrimidin-4-yl]-4-methyl-indol-5-yl]prop-2-enamide] | 100 to 250 nM | 250 to 1000 nM | 0.1 to 100 nM | 0.1 to 100 nM
15 | C=CC(=O)Nc1ccc2c(c1)c(C)cn2-c1nc(Nc2c(C)cccc2OCC)ncc1Cl [Example 29, N-[1-[5-chloro-2-(2-ethoxy-6-methyl-anilino)pyrimidin-4-yl]-3-methyl-indol-5-yl]prop-2-enamide] | > 1000 nM | > 1000 nM | > 1000 nM | > 1000 nM
16 | C=CC(=O)Nc1ccc2c(-c3nc(Nc4ccc(OC)c(OC)c4)ncc3Cl)cn(C)c2c1 [Example 31, N-[3-[5-chloro-2-(3,4-dimethoxyanilino)pyrimidin-4-yl]-1-methyl-indol-6-yl]prop-2-enamide] | 0.1 to 100 nM | 0.1 to 100 nM | 0.1 to 100 nM | 0.1 to 100 nM
17 | C=CC(=O)Nc1ccc2c(c1)c(C)cn2-c1nc(Nc2c(C)cccc2OCC)ncc1C#N [Example 33, N-[1-[5-cyano-2-(2-ethoxy-6-methyl-anilino)pyrimidin-4-yl]-3-methyl-indol-5-yl]prop-2-enamide] | > 1000 nM | > 1000 nM | > 1000 nM | > 1000 nM
18 | C=CC(=O)Nc1ccc2c(c1)c(C)cn2-c1nc(Nc2cn(C)nc2OC)ncc1C#N [Example 37, N-[1-[5-cyano-2-[(3-methoxy-1-methyl-pyrazol-4-yl)amino]pyrimidin-4-yl]-3-methyl-indol-5-yl]prop-2-enamide] | 100 to 250 nM | 100 to 250 nM | 0.1 to 100 nM | 0.1 to 100 nM
19 | C=CC(=O)Nc1ccc2c(c1)c(C)cn2-c1nc(Nc2ccccc2OCC)ncc1C#N [Example 39, N-[1-[5-cyano-2-(2-ethoxyanilino)pyrimidin-4-yl]-3-methyl-indol-5-yl]prop-2-enamide] | > 1000 nM | > 1000 nM | > 1000 nM | > 1000 nM
20 | C=CC(=O)Nc1ccc2c(-c3nc(Nc4ccc(N5CCOCC5)nc4)ncc3Cl)cn(C)c2c1 [Example 45, N-[3-[5-chloro-2-[(6-morpholino-3-pyridyl)amino]pyrimidin-4-yl]-1-methyl-indol-6-yl]prop-2-enamide] | 0.1 to 100 nM | 0.1 to 100 nM | 0.1 to 100 nM | 0.1 to 100 nM
21 | C=CC(=O)Nc1ccc2c(c1)c(C)cn2-c1nc(Nc2ccc(N3CCOCC3)c(OC)c2)ncc1C [Example 46, N-[1-[2-(3-methoxy-4-morpholino-anilino)-5-methyl-pyrimidin-4-yl]-3-methyl-indol-5-yl]prop-2-enamide] | 0.1 to 100 nM | 0.1 to 100 nM | 0.1 to 100 nM | 0.1 to 100 nM
